Data from ChEMBL document CHEMBL1201862, “PubChem BioAssay data set” (2004).
Where a name gives a salt, the structure may show the parent alone.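 48-hour exposure; five concentrations; linearly interpolated endpoints. At the GI50, growth is halved.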 Active and inactive are the calls of the source. Cut-off read from the data, not from the text of the source: active = GI50 up to about 1.1 µM and inactive = higher.

Tests used:
Test in all cases: DTP human tumour cell line panel, 48 h
A498 = system: A498
A549 = system: A549
COLO 205 = system: COLO 205
HCT-116 = system: HCT-116
HT-29 = system: HT-29
IGROV-1 = system: IGROV-1
LXFL 529 = system: LXFL 529
M14 = system: M14
NCI-H23 = system: NCI-H23
OVCAR-8 = system: OVCAR-8
SF-539 = system: SF-539
SK-MEL-2 = system: SK-MEL-2
SN12C = system: SN12C
SNB-19 = system: SNB-19
SR = system: SR
U-251 = system: U-251
UACC-257 = system: UACC-257

Measured: GI50

CCN1CCC(O)(c2ccccc2)C(C(=O)c2ccccc2)C1 (centres undefined)
inactive: A498 > 100 µM | A549 > 67.1 µM | COLO 205 22.4 µM | HCT-116 17.1 µM | HT-29 20.4 µM | IGROV-1 > 100 µM | LXFL 529 15.6 µM | M14 17.3 µM | NCI-H23 > 53 µM | OVCAR-8 26.4 µM | SF-539 62.5 µM | SK-MEL-2 > 100 µM | SN12C 20.1 µM | SNB-19 > 100 µM | SR 20.8 µM | U-251 > 100 µM | UACC-257 19.6 µM

NCC1(N2CCOCC2)C2CCCC21CNc1ccccc1 (centres undefined)
inactive: A549 > 100 µM | COLO 205 > 100 µM | HCT-116 > 100 µM | HT-29 > 100 µM | IGROV-1 > 100 µM | LXFL 529 > 100 µM | M14 > 100 µM | NCI-H23 > 100 µM | OVCAR-8 > 100 µM | SF-539 > 100 µM | SN12C > 100 µM | SNB-19 > 100 µM | SR > 100 µM | U-251 > 100 µM | UACC-257 > 100 µM

Cc1cc2c(=O)c(C)n[nH]c2c(C#N)c1C
inactive: A549 > 100 µM | COLO 205 > 100 µM | HCT-116 > 100 µM | HT-29 > 100 µM | IGROV-1 > 100 µM | LXFL 529 > 100 µM | NCI-H23 > 100 µM | OVCAR-8 > 100 µM | SF-539 > 100 µM | SK-MEL-2 > 10 µM | SN12C > 100 µM | SNB-19 > 100 µM | SR > 100 µM | U-251 > 100 µM | UACC-257 > 100 µM

CSC1=Nc2ccccc2N=C(c2ccc(Cl)cc2)C1
inactive: A549 43.8 µM | COLO 205 59.6 µM | HCT-116 26.5 µM | HT-29 23 µM | IGROV-1 22.8 µM | LXFL 529 45 µM | M14 36.1 µM | NCI-H23 31.7 µM | OVCAR-8 52.7 µM | SF-539 40 µM | SK-MEL-2 25.4 µM | SN12C 40.5 µM | SNB-19 > 100 µM | SR 32.1 µM | U-251 33.4 µM | UACC-257 27.7 µM

CC1=NN(C(=O)CC(=O)Nc2ccccc2F)C(=O)C1/N=N/c1ccccc1[N+](=O)[O-] (centres undefined)
inactive: A549 64.7 µM | COLO 205 > 100 µM | HCT-116 > 100 µM | HT-29 > 100 µM | IGROV-1 > 100 µM | LXFL 529 > 100 µM | M14 > 100 µM | NCI-H23 94.6 µM | OVCAR-8 58.5 µM | SF-539 58.7 µM | SK-MEL-2 > 100 µM | SN12C > 100 µM | SNB-19 > 100 µM | U-251 > 100 µM | UACC-257 97.3 µM

C=C1CN2CCc3c([nH]c4ccccc34)C2CC1CC(=O)N(C)C (centres undefined)
inactive: A549 > 309 µM | COLO 205 > 309 µM | HCT-116 > 309 µM | HT-29 > 309 µM | IGROV-1 > 309 µM | LXFL 529 > 309 µM | NCI-H23 > 309 µM | OVCAR-8 > 309 µM | SF-539 > 309 µM | SK-MEL-2 > 309 µM | SN12C > 309 µM | SNB-19 > 309 µM | SR > 309 µM | U-251 > 309 µM | UACC-257 > 309 µM

O=C(O)CC12C3C4C5C3C1C5C42 (centres undefined)
inactive: A498 > 100 µM | A549 > 100 µM | COLO 205 > 100 µM | HCT-116 > 100 µM | HT-29 > 100 µM | IGROV-1 > 100 µM | LXFL 529 > 100 µM | M14 > 100 µM | NCI-H23 > 100 µM | OVCAR-8 > 100 µM | SF-539 > 100 µM | SK-MEL-2 > 100 µM | SN12C > 100 µM | SNB-19 > 100 µM | U-251 > 100 µM | UACC-257 > 100 µM

CC(=O)OC1COC(n2ccc3cc(Br)c([N+](=O)[O-])cc32)C(OC(C)=O)C1OC(C)=O (centres undefined)
inactive: A498 19.1 µM | A549 27.8 µM | COLO 205 23.7 µM | HT-29 28.7 µM | IGROV-1 30.3 µM | LXFL 529 20 µM | M14 35.8 µM | NCI-H23 23.3 µM | OVCAR-8 22.4 µM | SF-539 22.2 µM | SK-MEL-2 > 10 µM | SN12C 30.8 µM | SNB-19 30 µM | SR 30.4 µM | U-251 19.5 µM | UACC-257 19.2 µM

CC1(Cl)C(=O)NC(=O)N(C2CC(N=[N+]=[N-])C(CO)O2)C1N=[N+]=[N-] (centres undefined)
inactive: A498 > 100 µM | A549 > 100 µM | COLO 205 > 100 µM | HT-29 > 100 µM | IGROV-1 > 100 µM | LXFL 529 > 100 µM | M14 > 100 µM | NCI-H23 > 100 µM | OVCAR-8 > 100 µM | SF-539 > 100 µM | SK-MEL-2 > 100 µM | SN12C > 100 µM | SNB-19 > 100 µM | U-251 > 100 µM | UACC-257 > 100 µM

CCOC(=O)C(CNc1ccc(O)cc1)NC(=O)c1ccccc1 (centres undefined)
inactive: A498 > 100 µM | A549 > 100 µM | COLO 205 > 100 µM | HCT-116 > 100 µM | HT-29 > 100 µM | IGROV-1 > 100 µM | LXFL 529 77.3 µM | M14 > 66.4 µM | NCI-H23 > 100 µM | OVCAR-8 > 100 µM | SF-539 > 100 µM | SK-MEL-2 > 100 µM | SN12C > 100 µM | SNB-19 > 100 µM | SR > 61 µM | U-251 > 100 µM | UACC-257 > 100 µM

CC(=O)/C(=C\c1ccco1)C(=O)Nc1ccccc1
inactive: A549 > 100 µM | HCT-116 > 100 µM | HT-29 > 100 µM | IGROV-1 > 100 µM | LXFL 529 > 100 µM | M14 > 100 µM | NCI-H23 > 100 µM | OVCAR-8 > 100 µM | SF-539 > 100 µM | SK-MEL-2 > 100 µM | SN12C > 100 µM | SNB-19 > 100 µM | SR > 100 µM | U-251 > 100 µM | UACC-257 > 100 µM

O=C/C1=C/C2=Cc3ccccc3C=C(/C=C(/C=O)C1)C2
inactive: A498 > 100 µM | A549 > 100 µM | COLO 205 > 100 µM | HCT-116 19.4 µM | HT-29 40.5 µM | IGROV-1 > 100 µM | LXFL 529 30.3 µM | M14 43.4 µM | NCI-H23 32.9 µM | OVCAR-8 28.9 µM | SF-539 46.6 µM | SK-MEL-2 > 100 µM | SN12C 42.6 µM | SNB-19 44.9 µM | U-251 34.3 µM | UACC-257 30.9 µM

CCN(CC)c1c(C)nnn1C1OC(COC(C)=O)C(OC(C)=O)C(OC(C)=O)C1OC(C)=O (centres undefined)
inactive: A498 > 100 µM | A549 > 100 µM | COLO 205 > 100 µM | HCT-116 > 100 µM | HT-29 > 100 µM | IGROV-1 > 100 µM | LXFL 529 > 100 µM | M14 > 100 µM | NCI-H23 > 100 µM | OVCAR-8 > 100 µM | SF-539 > 100 µM | SN12C > 100 µM | SNB-19 > 100 µM | U-251 > 100 µM | UACC-257 > 100 µM

O=C1OC(c2ccccc2)=N/C1=C/N1CCCC1C(=O)O (centres undefined)
inactive: A498 > 100 µM | A549 > 100 µM | COLO 205 > 100 µM | HCT-116 > 100 µM | HT-29 > 100 µM | IGROV-1 > 100 µM | LXFL 529 > 100 µM | M14 > 100 µM | NCI-H23 > 100 µM | OVCAR-8 > 100 µM | SF-539 > 100 µM | SK-MEL-2 > 100 µM | SNB-19 > 100 µM | U-251 > 100 µM | UACC-257 > 100 µM

NNC(=O)C1CCC(=O)N1S(=O)(=O)c1ccccc1 (centres undefined)
inactive: A549 > 100 µM | COLO 205 > 100 µM | HCT-116 > 100 µM | HT-29 > 100 µM | IGROV-1 > 100 µM | LXFL 529 > 100 µM | M14 > 100 µM | NCI-H23 > 100 µM | OVCAR-8 > 100 µM | SF-539 > 100 µM | SK-MEL-2 > 100 µM | SN12C > 100 µM | SNB-19 > 100 µM | SR > 100 µM | U-251 > 100 µM | UACC-257 > 100 µM

CO[C@@H]1C=C[C@@]23c4cc5c(cc4CN(C[C@@H]2O)[C@H]3C1)OCO5 [(+)-HAEMANTHAMINE]
inactive: A549 24 µM | HT-29 10.4 µM | IGROV-1 23.1 µM | LXFL 529 13.6 µM | M14 5.94 µM | NCI-H23 23.6 µM | OVCAR-8 27.9 µM | SF-539 28.6 µM | SK-MEL-2 9.16 µM | SN12C 16.1 µM | SNB-19 33.3 µM | SR 15 µM | U-251 15 µM | UACC-257 22.6 µM

CNC(C)Cc1ccccc1OC (centres undefined) [METHOXYPHENAMINE HYDROCHLORIDE]
inactive: A498 > 100 µM | A549 > 100 µM | COLO 205 > 100 µM | HCT-116 > 100 µM | HT-29 > 100 µM | IGROV-1 > 100 µM | LXFL 529 > 100 µM | M14 > 100 µM | NCI-H23 > 100 µM | OVCAR-8 > 100 µM | SF-539 > 100 µM | SK-MEL-2 > 100 µM | SN12C > 100 µM | SNB-19 > 100 µM | U-251 > 100 µM | UACC-257 > 100 µM
